Laboratory results published in patent publication US20240190880A1 (THE REGENTS OF THE UNIVERSITY OF MICHIGAN, priority 2021, published 2024).

target: T1, ER (Homo sapiens, UniProt P03372); test: ER degradation activity, in-cell western blot analysis in T47D cells; assay type: cell-based; conditions: 16 hours, Table A does not say which cell line (T47D or MCF7), read-out: Potency (DC50)
T1 construct: host or cells: T47D and MCF7 human breast cancer cells
T1 sequence (P03372 1-595): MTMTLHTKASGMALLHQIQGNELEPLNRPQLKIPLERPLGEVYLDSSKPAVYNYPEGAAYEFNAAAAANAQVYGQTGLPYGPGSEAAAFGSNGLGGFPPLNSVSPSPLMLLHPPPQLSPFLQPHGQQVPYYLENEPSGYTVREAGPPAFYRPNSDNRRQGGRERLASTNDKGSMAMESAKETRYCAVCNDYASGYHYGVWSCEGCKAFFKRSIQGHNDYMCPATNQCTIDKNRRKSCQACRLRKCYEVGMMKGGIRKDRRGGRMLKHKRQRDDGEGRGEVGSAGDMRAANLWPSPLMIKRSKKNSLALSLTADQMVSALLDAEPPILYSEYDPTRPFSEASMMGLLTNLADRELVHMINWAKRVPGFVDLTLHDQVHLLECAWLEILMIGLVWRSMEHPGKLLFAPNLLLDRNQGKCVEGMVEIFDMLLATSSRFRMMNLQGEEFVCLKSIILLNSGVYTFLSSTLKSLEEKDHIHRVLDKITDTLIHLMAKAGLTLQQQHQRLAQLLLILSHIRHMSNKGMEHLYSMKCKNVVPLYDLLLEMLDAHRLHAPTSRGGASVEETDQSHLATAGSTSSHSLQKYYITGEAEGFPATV
Summary of the method: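 T47D cells cultured in DMEM with 10% FBS, treated with compounds (final 0.5% DMSO) for 16 h. ER level measured by in-cell western with anti-rabbit-680/anti-mouse-800 near-infrared detection. Relative ER percentage calculated against untreated and DMSO-treated wells set as 100%.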

DC50, < 10 nM:
C[C@@H]1Cc2c([nH]c3ccccc23)[C@@H](c2c(F)cc(C3CCN(C(=O)[C@H]4CC[C@H](N5Cc6cc7c(cc6C5)C(=O)N(C5CCC(=O)NC5=O)C7=O)CC4)CC3)cc2F)N1CC(F)F (stereo partly drawn) [E 393, 6-((1R,4r)-4-(4-(4-((1R,3R)-2-(2,2-difluoroethyl)-3-methyl-2,3,4,9-tetrahydro-1H-pyrido[3,4-b]indol-1-yl)-3,5-difluorophenyl)piperidine-1-carbonyl)cyclohexyl)-2-(2,6-dioxopiperidin-3-yl)-6,7-dihydropyrrolo[3,4-f]isoindole-1,3(2H,5H)-dione]
C[C@@H]1Cc2c([nH]c3ccccc23)[C@@H](c2c(F)cc(N3CCC4(CC3)CC(C(=O)N3CCC(N5Cc6cc7c(cc6C5)C(=O)N(C5CCC(=O)NC5=O)C7=O)CC3)C4)cc2F)N1CC(F)F (stereo partly drawn) [E 100, 6-(1-(7-(4-((1R,3R)-2-(2,2-difluoroethyl)-3-methyl-2,3,4,9-tetrahydro-1H-pyrido[3,4-b]indol-1-yl)-3,5-difluorophenyl)-7-azaspiro[3.5]nonane-2-carbonyl)piperidin-4-yl)-2-(2,6-dioxopiperidin-3-yl)-6,7-dihydropyrrolo[3,4-f]isoindole-1,3(2H,5H)-dione]
O=C1CCC(N2C(=O)c3cc4c(cc3C2=O)CN(CC(=O)N2CCC3(CC2)CCN(c2ccc(C(=C(CCCl)c5ccccc5)c5ccc(O)cc5)cc2)CC3)C4)C(=O)N1 (stereo not shown) [E 182, 6-(2-(9-(4-(4-chloro-1-(4-hydroxyphenyl)-2-phenylbut-1-en-1-yl)phenyl)-3,9-diazaspiro[5.5]undecan-3-yl)-2-oxoethyl)-2-(2,6-dioxopiperidin-3-yl)-6,7-dihydropyrrolo[3,4-f]isoindole-1,3(2H,5H)-dione]

DC50, > 100 nM:
O=C1CCC(N2C(=O)c3cc4c(cc3C2=O)CN(C2CCC(C(=O)NC3CN(c5ccc([C@@H]6c7ccc(O)cc7CC[C@@H]6c6ccccc6)cc5)C3)CC2)C4)C(=O)N1 (stereo partly shown) [E 336]
C[C@@H]1Cc2c([nH]c3ccccc23)[C@@H](c2ccc(N3CCC4(CCN(C(=O)CN5Cc6cc7c(cc6C5)C(=O)N(C5CCC(=O)NC5=O)C7=O)CC4)CC3)cn2)N1CC(F)F (stereo partly drawn) [E 280, 6-(2-(9-(6-((1S,3R)-2-(2,2-difluoroethyl)-3-methyl-2,3,4,9-tetrahydro-1H-pyrido[3,4-b]indol-1-yl)pyridin-3-yl)-3,9-diazaspiro[5.5]undecan-3-yl)-2-oxoethyl)-2-(2,6-dioxopiperidin-3-yl)-6,7-dihydropyrrolo[3,4-f]isoindole-1,3(2H,5H)-dione]
O=C1CCC(N2C(=O)c3cc4c(cc3C2=O)CN(CC(=O)N2CC(n3cc(-c5ccc([C@@H]6c7ccc(O)cc7CC[C@@H]6c6ccccc6)cc5)cn3)C2)C4)C(=O)N1 (stereo partly drawn) [E 215, 2-(2,6-dioxopiperidin-3-yl)-6-(2-(3-(4-(4-((1R,2S)-6-hydroxy-2-phenyl-1,2,3,4-tetrahydronaphthalen-1-yl)phenyl)-1H-pyrazol-1-yl)azetidin-1-yl)-2-oxoethyl)-6,7-dihydropyrrolo[3,4-f]isoindole-1,3(2H,5H)-dione]
O=C1CCC(N2C(=O)c3cc4c(cc3C2=O)CN(C(=O)C2CCN(CC3CN(c5ccc([C@@H]6c7ccc(O)cc7CC[C@@H]6c6ccccc6)cc5)C3)CC2)C4)C(=O)N1 (stereo partly drawn) [E 295, 2-(2,6-dioxopiperidin-3-yl)-6-(1-((1-(4-((1R,2S)-6-hydroxy-2-phenyl-1,2,3,4-tetrahydronaphthalen-1-yl)phenyl)azetidin-3-yl)methyl)piperidine-4-carbonyl)-6,7-dihydropyrrolo[3,4-f]isoindole-1,3(2H,5H)-dione]
O=C1CCC(N2C(=O)c3cc4c(cc3C2=O)CN(CC2CCN(CC3CN(c5ccc([C@@H]6c7ccc(O)cc7CC[C@@H]6c6ccc(F)cc6)cc5)C3)CC2)C4)C(=O)N1 (stereo partly drawn) [E 277, 2-(2,6-dioxopiperidin-3-yl)-6-((1-((1-(4-((1R,2S)-2-(4-fluorophenyl)-6-hydroxy-1,2,3,4-tetrahydronaphthalen-1-yl)phenyl)azetidin-3-yl)methyl)piperidin-4-yl)methyl)-6,7-dihydropyrrolo[3,4-f]isoindole-1,3(2H,5H)-dione]

DC50, 10 to 100 nM:
C[C@@H]1Cc2c([nH]c3ccccc23)[C@@H](c2c(F)cc(N3CCC(CN4CC(N5Cc6cc7c(cc6C5)C(=O)N(C5CCC(=O)NC5=O)C7=O)C4)CC3)cc2F)N1CC(F)F (stereo partly drawn) [E 123, 6-(1-((1-(4-((1R,3R)-2-(2,2-difluoroethyl)-3-methyl-2,3,4,9-tetrahydro-1H-pyrido[3,4-b]indol-1-yl)-3,5-difluorophenyl)piperidin-4-yl)methyl)azetidin-3-yl)-2-(2,6-dioxopiperidin-3-yl)-6,7-dihydropyrrolo[3,4-f]isoindole-1,3(2H,5H)-dione]
O=C1CCC(N2C(=O)c3cc4c(cc3C2=O)CN(CC2CN(C(=O)C3CCN(c5ccc([C@@H]6c7ccc(O)cc7CC[C@@H]6c6ccccc6)cc5)CC3)C2)C4)C(=O)N1 (mixture of isomers) [E 16, Rac-2-(2,6-dioxopiperidin-3-yl)-6-((1-(1-(4-((1R,2S)-6-hydroxy-2-phenyl-1,2,3,4-tetrahydronaphthalen-1-yl)phenyl)piperidine-4-carbonyl)azetidin-3-yl)methyl)-6,7-dihydropyrrolo[3,4-f]isoindole-1,3(2H,5H)-dione]
O=C1CCC(N2C(=O)c3cc4c(cc3C2=O)CN(CC(=O)N2CCC3(CC2)CCN(c2ccc([C@@H]5c6ccc(O)cc6CC[C@@H]5c5ccccc5)cc2)CC3)C4)C(=O)N1 (mixture of isomers) [E 20, Rac-2-(2,6-dioxopiperidin-3-yl)-6-(2-(9-(4-((1R,2S)-6-hydroxy-2-phenyl-1,2,3,4-tetrahydronaphthalen-1-yl)phenyl)-3,9-diazaspiro[5.5]undecan-3-yl)-2-oxoethyl)-6,7-dihydropyrrolo[3,4-f]isoindole-1,3(2H,5H)-dione]
C[C@H]1CC2(CCN(C(=O)CN3Cc4cc5c(cc4C3)C(=O)N(C3CCC(=O)NC3=O)C5=O)CC2)CN1c1ccc([C@@H]2c3ccc(O)cc3CC[C@@H]2c2ccccc2)cc1 (mixture of isomers) [E 143, Rac-2-(2,6-dioxopiperidin-3-yl)-6-(2-((S)-2-(4-((1R,2S)-6-hydroxy-2-phenyl-1,2,3,4-tetrahydronaphthalen-1-yl)phenyl)-3-methyl-2,8-diazaspiro[4.5]decan-8-yl)-2-oxoethyl)-6,7-dihydropyrrolo[3,4-f]isoindole-1,3(2H,5H)-dione]
C[C@@H]1Cc2c([nH]c3ccccc23)[C@@H](c2c(F)cc(N3CCCC(CN4CCC(N5Cc6cc7c(cc6C5)C(=O)N(C5CCC(=O)NC5=O)C7=O)CC4)C3)cc2F)N1CC(F)F (stereo partly drawn) [E 59, 6-(1-((1-(4-((1R,3R)-2-(2,2-difluoroethyl)-3-methyl-2,3,4,9-tetrahydro-1H-pyrido[3,4-b]indol-1-yl)-3,5-difluorophenyl)piperidin-3-yl)methyl)piperidin-4-yl)-2-(2,6-dioxopiperidin-3-yl)-6,7-dihydropyrrolo[3,4-f]isoindole-1,3(2H,5H)-dione]

same assay, conditions: compounds 16 hours, Table A does not say whether T47D or MCF7, read-out: Potency (DC50)

DC50, > 100 nM:
C[C@@H]1Cc2cc(O)ccc2[C@H](c2ccc(C3=CCC4(CC3)CCN(C(=O)CN3Cc5cc6c(cc5C3)C(=O)N(C3CCC(=O)NC3=O)C6=O)CC4)cc2)N1CC(F)F (stereo partly drawn) [E 449, 6-(2-(9-(4-((1S,3R)-2-(2,2-difluoroethyl)-6-hydroxy-3-methyl-1,2,3,4-tetrahydroisoquinolin-1-yl)phenyl)-3-azaspiro[5.5]undec-8-en-3-yl)-2-oxoethyl)-2-(2,6-dioxopiperidin-3-yl)-6,7-dihydropyrrolo[3,4-f]isoindole-1,3(2H,5H)-dione]
CN(c1ccc([C@@H]2c3ccc(O)cc3CC[C@@H]2c2ccccc2)cc1)C1CN(C[C@H]2CC[C@H](C(=O)N3Cc4cc5c(cc4C3)C(=O)N(C3CCC(=O)NC3=O)C5=O)CC2)C1 (stereo partly drawn) [E 398, 2-(2,6-dioxopiperidin-3-yl)-6-((1R,4r)-4-((3-((4-((1R,2S)-6-hydroxy-2-phenyl-1,2,3,4-tetrahydronaphthalen-1-yl)phenyl)(methyl)amino)azetidin-1-yl)methyl)cyclohexane-1-carbonyl)-6,7-dihydropyrrolo[3,4-f]isoindole-1,3(2H,5H)-dione]
C[C@@H]1Cc2cc(O)ccc2[C@H](c2c(F)cc(C(=O)N3CC4(CCN(C(=O)CN5Cc6cc7c(cc6C5)C(=O)N(C5CCC(=O)NC5=O)C7=O)CC4)C3)cc2F)N1CC(F)F (stereo partly drawn) [E 458, 6-(2-(2-(4-((1R,3R)-2-(2,2-difluoroethyl)-6-hydroxy-3-methyl-1,2,3,4-tetrahydroisoquinolin-1-yl)-3,5-difluorobenzoyl)-2,7-diazaspiro[3.5]nonan-7-yl)-2-oxoethyl)-2-(2,6-dioxopiperidin-3-yl)-6,7-dihydropyrrolo[3,4-f]isoindole-1,3(2H,5H)-dione]
